According to PMC6152226, “Composition and Antioxidant, Antienzymatic and Antimicrobial Activities of Volatile Molecules from Spanish Salvia lavandulifolia (Vahl) Essential Oils” (Molecules : A Journal of Synthetic Chemistry and Natural …, 2017):
≈ marks a conversion by molar mass, not a printed value. Structures can show the parent of a compound that is named as a salt. Where two headings read alike, the source gives them in different places.

Experiments:
[1] = Oxygen radical absorbance capacity (ORAC) assay; conditions: individual compounds; maximum assay concentration 100 mM
Protocol: (§1) Five antioxidant methods were performed with SlEOs and their main individual compounds in triplicate. In the oxygen radical absorbance capacity (ORAC) assay, peroxyl radicals are produced by 2,2′-Azobis(2-methylpropionamidine) dihydrochloride (AAPH), which reacts with fluorescein giving a non-fluorescent compound [61]. The antioxidants are able to scavenge these peroxyl radicals. Trolox was used as the reference antioxidant. The 2,2-diphenyl-1-picrylhydrazyl (DPPH) and 2,2′-azino-bis(3-ethylbenzothiazoline-6-sulphonic acid) (ABTS) methods measure the bleaching produced by the reduction of the coloured DPPH and ABTS radicals. Trolox was used as the reference antioxidant. The RdP method measure the ability to reduce ferric ions, according to the method of Oyaizu. Ascorbic acid was the reference antioxidant used in this method. The ChP method measured the ability to chelate Fe^2+ ion, following the method of Miguel et al.. EDTA was used as reference antioxidant. The SlEOs were diluted in 100% ethanol in the DPPH, ABTS, RdP and ChP methods, whereas in the ORAC method, SlEOs were diluted in 15% ethanol to obtain a final concentration of 5% ethanol in the reaction medium. All measurements were made at the end-point of the reaction, except in the ORAC method (Figure S5).

DPPH radical method = conditions: individual compounds; maximum assay concentration 100 mM
Protocol: as §1

ABTS radical method = conditions: individual compounds; maximum assay concentration 100 mM
Protocol: as §1

[2] = Reducing power (RdP) method; conditions: individual compounds; maximum assay concentration 100 mM
Protocol: as §1

[3] = Chelating power (ChP) method; conditions: individual compounds; maximum assay concentration 100 mM
Protocol: as §1

[4] = system: Escherichia coli ATCC 8739; experiment: Broth microdilution MIC and MBC; type: cell-based
Protocol: (§2) The following test microorganisms used in this work were acquired from Sigma-Aldrich: Pseudomonas aeruginosa ATCC 9027, Escherichia coli ATCC 8739, Staphylococcus aureus ATCC 6538, and Candida albicans ATCC 10231. The stock cultures were preserved in TSB or YPD with 15% glycerol, for bacteria and yeast cells, respectively, at −80 °C. Isolated colonies from an 18- to 24-h agar plate were transferred to MHB for bacteria and RPMI-1640 for C. albicans.
(§3) MIC were determined using the broth microdilution method in 96-well microplates, according to the M07-A10 [69] standard for bacteria and the M27-A3 [70] for Candida. Briefly, two-fold dilutions of a 40 µL/mL SlEOs were prepared to obtain a final concentration range of 0.08–20 µL/mL with 0.5% Tween®80 and 2.5% DMSO. The antimicrobial activities of main compounds were also tested in the concentration range of 0.12–15 mM with 0.5% Tween®80 and 2.5% DMSO as solvent. The final strain concentration was 5 × 10^5 CFU/mL in MHB for the bacteria and 0.5−2.5 × 10^3 in RPMI-1640 for the yeast. These plates were incubated for 24 h for bacteria and 48 h for Candida, both at 35 ± 1 °C, under aerobic conditions on a plate shaker at 100 rpm. Streptomycin (0.06–8.00 µg/mL) and fluconazole (0.13–16 µg/mL) were used as reference antibacterial and antifungal compound, respectively. […] MIC is defined as the lowest concentration of EO or individual compound with no visible growth of microorganisms, at the end of the incubation period. […] All determinations were carried out in triplicate.

[5] = system: Staphylococcus aureus ATCC 6538; experiment: Broth microdilution MIC and MBC; type: cell-based
Protocol: as §2, §3

[6] = system: Candida albicans ATCC 10231; experiment: Broth microdilution MIC and MFC; type: cell-based
Protocol: as §2, §3

Row | Compound | ORAC [1] | DPPH (DPPH radical method) | ABTS (ABTS radical method) | RdP [2] | ChP [3] | MIC ([4]; ATCC8739, 24 h, read-out: MIC) | MBC ([4]; ATCC8739, read-out: MBC) | MIC ([5]; ATCC6538, 24 h, read-out: MIC) | MBC ([5]; ATCC6538, read-out: MBC) | MIC ([6]; ATCC10231, 48 h, read-out: MIC) | MFC ([6]; ATCC10231, read-out: MFC) | further results
1 | CC1(C)C2CCC1(C)C(O)C2 (stereo not drawn) [Borneol] | N/D (Activity lower than 0.05 units at a maximum assay concentration of 100 mM) | N/D (Activity lower than 0.05 units at a maximum assay concentration of 100 mM) | N/D (Activity lower than 0.05 units at a maximum assay concentration of 100 mM) | N/D (Activity lower than 0.05 units at a maximum assay concentration of 100 mM) | N/D (Activity lower than 0.05 units at a maximum assay concentration of 100 mM) | 1100 µg/mL (≈ 7.13 mM) | 1100 µg/mL (≈ 7.13 mM) | 300 µg/mL (≈ 1.94 mM) | 300 µg/mL (≈ 1.94 mM) | 600 µg/mL (≈ 3.89 mM) | 600 µg/mL (≈ 3.89 mM) | 
2 | OC(Cn1cncn1)(Cn1cncn1)c1ccc(F)cc1F [Fluconazole, reference compound] |  |  |  |  |  |  |  |  |  | 4 µg/mL (≈ 0.0131 mM) | 4 µg/mL (≈ 0.0131 mM) | 
3 | C=CC(C)(CCC=C(C)C)OC(C)=O (stereo not drawn) [Linalyl acetate] | 207.1 ± 13.2 µmol TE/mmol X | N/D (Activity lower than 0.05 units at a maximum assay concentration of 100 mM) | 0.1 ± 0.0 µmol TE/mmol X | N/D (Activity lower than 0.05 units at a maximum assay concentration of 100 mM) | 27.4 ± 2.1 µmol EDTAE/mmol X |  |  |  |  |  |  | MBC ([4]; ATCC8739): > 3000 µg/mL; MIC ([4]; ATCC8739, 24 h): > 3000 µg/mL; MBC ([5]; ATCC6538): > 3000 µg/mL; MIC ([5]; ATCC6538, 24 h): 3000 µg/mL; MFC ([6]; ATCC10231): > 3000 µg/mL; MIC ([6]; ATCC10231, 48 h): > 3000 µg/mL
4 | C=CC(=C)CCC=C(C)C [Myrcene] | N/D (Activity lower than 0.05 units at a maximum assay concentration of 100 mM) | N/D (Activity lower than 0.05 units at a maximum assay concentration of 100 mM) | N/D (Activity lower than 0.05 units at a maximum assay concentration of 100 mM) | N/D (Activity lower than 0.05 units at a maximum assay concentration of 100 mM) | 2.5 ± 0.2 µmol EDTAE/mmol X | > 2100 µg/mL | > 2100 µg/mL | > 2100 µg/mL | > 2100 µg/mL | > 2100 µg/mL | > 2100 µg/mL | 
5 | CC(C)C12CCC(C)(O)C1C2 (stereo not drawn) [Sabinene hydrate] | N/D (Activity lower than 0.05 units at a maximum assay concentration of 100 mM) | N/D (Activity lower than 0.05 units at a maximum assay concentration of 100 mM) | 0.5 ± 0.0 µmol TE/mmol X | N/D (Activity lower than 0.05 units at a maximum assay concentration of 100 mM) | 6.7 ± 0.6 µmol EDTAE/mmol X |  |  |  |  |  |  | 
6 | C=C1CCC2(C(C)C)CC12 (stereo not drawn) [Sabinene] |  |  |  |  |  | > 2000 µg/mL | > 2000 µg/mL | > 2000 µg/mL | > 2000 µg/mL | > 2000 µg/mL | > 2000 µg/mL | 
7 | [H]/N=C(/N)N[C@H]1[C@H](O)[C@@H](O)[C@H](O[C@@H]2O[C@@H](C)[C@](O)(C=O)[C@H]2O[C@@H]2O[C@@H](CO)[C@H](O)[C@@H](O)[C@@H]2NC)[C@@H](N/C(N)=N\[H])[C@@H]1O [Streptomycin sulfate, reference compound] |  |  |  |  |  | 1 µg/mL | 1 µg/mL | 1 µg/mL | 1 µg/mL |  |  | 
8 | Cc1ccc(C(C)C)cc1 [p-Cymene] | N/D (Activity lower than 0.05 units at a maximum assay concentration of 100 mM) | N/D (Activity lower than 0.05 units at a maximum assay concentration of 100 mM) | 0.1 ± 0.0 µmol TE/mmol X | N/D (Activity lower than 0.05 units at a maximum assay concentration of 100 mM) | 20.1 ± 1.6 µmol EDTAE/mmol X | 1000 µg/mL (≈ 7.45 mM) | 2000 µg/mL (≈ 14.9 mM) | > 2000 µg/mL | > 2000 µg/mL | 500 µg/mL (≈ 3.73 mM) | 500 µg/mL (≈ 3.73 mM) | 
9 | C/C1=C\CC/C(C)=C/CC(C)(C)/C=C/C1 [α-Humulene] |  |  |  |  |  |  |  |  |  |  |  | MBC [4]: >3000 µg/mL; MIC ([4]; 24 h): >3000 µg/mL; MBC [5]: 3000 µg/mL (≈ 14.7 mM); MIC ([5]; 24 h): 1600 µg/mL (≈ 7.83 mM); MFC [6]: >3000 µg/mL; MIC ([6]; 48 h): >3000 µg/mL
10 | CC1=CC=C(C(C)C)CC1 [α-Terpinene] | N/D (Activity lower than 0.05 units at a maximum assay concentration of 100 mM) | 0.3 ± 0.0 µmol TE/mmol X | 4.0 ± 0.2 µmol TE/mmol X | 1.9 ± 0.1 µmol AAE/mmol X | 62.2 ± 4.7 µmol EDTAE/mmol X |  |  |  |  |  |  | 
11 | C=C1CC/C=C(\C)CC[C@@H]2[C@@H]1CC2(C)C [β-Caryophyllene, (E)-β-Caryophyllene] | 394.7 ± 14.5 µmol TE/mmol X | N/D (Activity lower than 0.05 units at a maximum assay concentration of 100 mM) | N/D (Activity lower than 0.05 units at a maximum assay concentration of 100 mM) | N/D (Activity lower than 0.05 units at a maximum assay concentration of 100 mM) | 7.1 ± 0.5 µmol EDTAE/mmol X | > 3100 µg/mL | > 3100 µg/mL | > 3100 µg/mL | > 3100 µg/mL | > 3100 µg/mL | > 3100 µg/mL | 
12 | C=C1CCC2CC1C2(C)C (stereo not drawn) [β-Pinene] | 26.6 ± 1.6 µmol TE/mmol X | N/D (Activity lower than 0.05 units at a maximum assay concentration of 100 mM) | 0.1 ± 0.0 µmol TE/mmol X | N/D (Activity lower than 0.05 units at a maximum assay concentration of 100 mM) | 1.8 ± 0.1 µmol EDTAE/mmol X | > 2000 µg/mL | > 2000 µg/mL | > 2000 µg/mL | > 2000 µg/mL | > 2000 µg/mL | > 2000 µg/mL | 
13 | CC1=CCC(C(C)C)=CC1 [γ-Terpinene] | 171.4 ± 10.3 µmol TE/mmol X | 0.3 ± 0.0 µmol TE/mmol X | 2.5 ± 0.1 µmol TE/mmol X | 0.3 ± 0.0 µmol AAE/mmol X | 0.3 ± 0.0 µmol EDTAE/mmol X |  |  |  |  |  |  | 
